Experimental data as given in the NIST ThermoML archive (doi:10.1016/j.fluid.2016.02.011).

Columns and labels:
[1] = refractive index (Na D-line) (dimensionless); details: 100 kPa, Liquid, minimum deviations angle
[2] = refractive index (Na D-line) (dimensionless); xn = mol fraction of the nth substance listed; details: 100 kPa, Liquid, minimum deviations angle, x1 = 1

Brc1ccccc1 [bromobenzene]
[1]
Details	refractive index
283 K	1.5612
284.4 K	1.5605
285.75 K	1.5598
286.96 K	1.5591
287.98 K	1.5585
288.99 K	1.558
290.11 K	1.5574
291.22 K	1.5568
292.32 K	1.5563
293.32 K	1.5557

CCCCCC[n+]1ccn(C)c1.O=S(=O)([N-]S(=O)(=O)C(F)(F)F)C(F)(F)F + Brc1ccccc1
[2]
Details	refractive index
282.99 K	1.4329
284.26 K	1.4324
285.8 K	1.432
286.91 K	1.4317
288.05 K	1.4313
289.17 K	1.431
290.22 K	1.4307
291.28 K	1.4304
292.38 K	1.4301
293.39 K	1.4298

CCCCCC[n+]1ccn(C)c1.O=S(=O)([N-]S(=O)(=O)C(F)(F)F)C(F)(F)F
[1]
Details	refractive index
282.99 K	1.4329
284.26 K	1.4324
285.8 K	1.432
286.91 K	1.4317
288.05 K	1.4313
289.17 K	1.431
290.22 K	1.4307
291.28 K	1.4304
292.38 K	1.4301
293.39 K	1.4298
